Results on one molecule are retold here after PMC11233931, “Remodeling tumor‐associated macrophage for anti‐cancer effects by rational design of irreversible inhibition of mitogen‐activated protein kinase‐activated protein kinase 2” (MedComm, 2024).

Test in all cases: Eurofins kinase selectivity profile against 380 other human recombinant kinases (Table S2)
Format in all cases: biochemical

In assay [1] the target is T1, 380 human recombinant protein kinases (Homo sapiens, UniProt P42336, E542K).
T1 construct: purchased Eurofins (Celle Lévescault)
T1 sequence (P42336 whole entry E542K): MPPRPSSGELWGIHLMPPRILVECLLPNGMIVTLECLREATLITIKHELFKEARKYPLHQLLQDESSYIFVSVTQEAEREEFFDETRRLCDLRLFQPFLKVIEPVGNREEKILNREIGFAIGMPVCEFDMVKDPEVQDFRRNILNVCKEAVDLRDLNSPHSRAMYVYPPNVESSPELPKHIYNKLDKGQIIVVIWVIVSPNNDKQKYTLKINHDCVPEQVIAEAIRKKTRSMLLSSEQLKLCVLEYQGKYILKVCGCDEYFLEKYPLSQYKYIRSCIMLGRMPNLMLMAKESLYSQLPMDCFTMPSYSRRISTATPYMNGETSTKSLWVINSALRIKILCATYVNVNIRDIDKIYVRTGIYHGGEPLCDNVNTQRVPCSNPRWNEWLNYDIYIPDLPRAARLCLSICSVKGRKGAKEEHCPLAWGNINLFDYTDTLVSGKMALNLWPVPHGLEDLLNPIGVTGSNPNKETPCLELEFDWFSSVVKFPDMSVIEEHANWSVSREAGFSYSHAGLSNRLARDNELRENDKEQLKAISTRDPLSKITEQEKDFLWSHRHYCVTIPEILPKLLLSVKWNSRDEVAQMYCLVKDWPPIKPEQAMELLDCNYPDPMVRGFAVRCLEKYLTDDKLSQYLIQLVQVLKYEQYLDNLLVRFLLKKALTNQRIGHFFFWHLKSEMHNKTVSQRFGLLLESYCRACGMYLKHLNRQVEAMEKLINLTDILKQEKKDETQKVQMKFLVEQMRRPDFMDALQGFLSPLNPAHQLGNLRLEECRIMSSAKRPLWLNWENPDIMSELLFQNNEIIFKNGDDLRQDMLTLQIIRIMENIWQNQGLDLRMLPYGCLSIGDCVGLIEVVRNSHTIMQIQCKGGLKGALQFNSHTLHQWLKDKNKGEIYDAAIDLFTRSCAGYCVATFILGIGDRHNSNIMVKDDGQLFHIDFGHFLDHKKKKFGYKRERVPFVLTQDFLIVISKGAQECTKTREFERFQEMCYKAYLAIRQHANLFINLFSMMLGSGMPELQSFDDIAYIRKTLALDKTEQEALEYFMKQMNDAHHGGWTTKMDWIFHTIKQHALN
The note with it: PI3 Kinase (p110α(E542K)/p85α)(h), read-out: Inhibition rate (%). The method in brief:
(§1)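 Commercial selectivity screen of the test compound against a panel of 380 human recombinant protein kinases, run by an outside contractor at several compound concentrations to check whether its potency was specific for MK2.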

Assay [2] deals with T2, 380 human recombinant protein kinases (Homo sapiens, UniProt Q9NRM7).
T2 construct: purchased Eurofins (Celle Lévescault)
T2 sequence (Q9NRM7 1-1088): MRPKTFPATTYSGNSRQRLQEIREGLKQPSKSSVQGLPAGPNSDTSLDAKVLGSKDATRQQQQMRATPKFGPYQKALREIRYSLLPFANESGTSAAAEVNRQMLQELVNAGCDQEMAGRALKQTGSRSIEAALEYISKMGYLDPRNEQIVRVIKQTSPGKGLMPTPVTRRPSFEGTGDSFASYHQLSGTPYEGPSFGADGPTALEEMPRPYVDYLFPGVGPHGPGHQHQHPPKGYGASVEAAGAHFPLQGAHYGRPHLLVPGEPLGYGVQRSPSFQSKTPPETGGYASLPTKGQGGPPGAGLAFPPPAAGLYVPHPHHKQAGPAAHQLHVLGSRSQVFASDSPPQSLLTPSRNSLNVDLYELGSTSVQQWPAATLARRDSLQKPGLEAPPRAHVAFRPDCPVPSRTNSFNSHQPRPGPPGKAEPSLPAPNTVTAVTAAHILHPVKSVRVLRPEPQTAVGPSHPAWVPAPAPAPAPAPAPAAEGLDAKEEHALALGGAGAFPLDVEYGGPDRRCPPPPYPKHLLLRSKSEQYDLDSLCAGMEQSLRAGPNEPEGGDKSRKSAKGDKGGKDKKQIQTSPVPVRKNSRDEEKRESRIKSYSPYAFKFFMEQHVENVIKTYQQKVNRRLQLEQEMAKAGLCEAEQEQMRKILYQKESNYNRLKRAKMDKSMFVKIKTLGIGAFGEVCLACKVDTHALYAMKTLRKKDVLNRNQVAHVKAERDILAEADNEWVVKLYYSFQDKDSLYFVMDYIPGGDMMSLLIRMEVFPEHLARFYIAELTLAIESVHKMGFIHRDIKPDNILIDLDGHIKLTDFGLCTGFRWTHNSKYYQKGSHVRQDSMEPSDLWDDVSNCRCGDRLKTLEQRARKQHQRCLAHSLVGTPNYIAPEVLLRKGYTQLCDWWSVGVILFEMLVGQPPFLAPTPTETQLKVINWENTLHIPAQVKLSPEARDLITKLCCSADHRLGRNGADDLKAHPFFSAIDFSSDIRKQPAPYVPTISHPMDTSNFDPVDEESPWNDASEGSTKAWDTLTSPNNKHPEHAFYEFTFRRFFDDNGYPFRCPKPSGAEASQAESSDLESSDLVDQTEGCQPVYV
The note with it: LATS2(h), read-out: Inhibition rate. The method in brief:
as §1

Assay [3] deals with T3, 380 human recombinant protein kinases (Homo sapiens, UniProt P42336, H1047R).
T3 construct: purchased Eurofins (Celle Lévescault)
T3 sequence (P42336 whole entry H1047R): as the sequence (P42336 whole entry E542K) above, with K542E, H1047R counted along it
The following applies: PI3 Kinase (p110α(H1047R)/p85α)(h), read-out: Inhibition rate (%). The method in brief:
as §1

Assay [4] deals with T4, 380 human recombinant protein kinases (Homo sapiens, UniProt Q9P1W9).
T4 construct: purchased Eurofins (Celle Lévescault)
T4 sequence (Q9P1W9 whole entry): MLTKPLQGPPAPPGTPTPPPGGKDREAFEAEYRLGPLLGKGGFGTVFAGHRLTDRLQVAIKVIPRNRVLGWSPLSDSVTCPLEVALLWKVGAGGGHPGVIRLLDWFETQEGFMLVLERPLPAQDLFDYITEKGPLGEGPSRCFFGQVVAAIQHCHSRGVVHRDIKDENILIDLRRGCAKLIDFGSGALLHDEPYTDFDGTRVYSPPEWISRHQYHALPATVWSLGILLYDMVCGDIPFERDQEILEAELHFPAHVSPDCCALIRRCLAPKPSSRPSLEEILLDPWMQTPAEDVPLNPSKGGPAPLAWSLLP
The note with it: Pim-2(h), read-out: Inhibition rate. The method in brief:
as §1

For assay [5], the target named is T5, 380 human recombinant protein kinases (Homo sapiens, UniProt P78362).
T5 construct: purchased Eurofins (Celle Lévescault)
T5 sequence (P78362 whole entry): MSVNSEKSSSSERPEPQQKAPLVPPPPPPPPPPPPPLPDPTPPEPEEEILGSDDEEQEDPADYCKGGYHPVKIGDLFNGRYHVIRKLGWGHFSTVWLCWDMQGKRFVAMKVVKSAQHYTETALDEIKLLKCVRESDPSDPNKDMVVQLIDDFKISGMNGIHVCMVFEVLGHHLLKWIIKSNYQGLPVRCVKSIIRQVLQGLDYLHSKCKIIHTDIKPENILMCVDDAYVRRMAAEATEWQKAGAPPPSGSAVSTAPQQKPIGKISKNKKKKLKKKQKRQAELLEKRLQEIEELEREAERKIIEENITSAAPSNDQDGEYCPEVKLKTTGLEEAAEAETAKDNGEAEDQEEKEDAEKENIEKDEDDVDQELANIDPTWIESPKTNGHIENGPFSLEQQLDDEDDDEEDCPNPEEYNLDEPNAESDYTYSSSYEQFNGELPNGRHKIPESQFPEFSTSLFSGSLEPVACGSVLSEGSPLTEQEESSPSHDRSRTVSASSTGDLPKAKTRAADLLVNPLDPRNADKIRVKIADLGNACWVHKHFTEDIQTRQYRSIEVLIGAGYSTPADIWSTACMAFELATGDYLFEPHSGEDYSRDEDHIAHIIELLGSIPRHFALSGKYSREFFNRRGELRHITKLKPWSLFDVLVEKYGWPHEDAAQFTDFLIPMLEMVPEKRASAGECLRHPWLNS
The note with it: SRPK2(h), read-out: Inhibition rate (%). In outline:
as §1

For assay [6], the target named is T6, 380 human recombinant protein kinases (Homo sapiens, UniProt P22607).
T6 construct: purchased Eurofins (Celle Lévescault)
T6 sequence (P22607 23-806): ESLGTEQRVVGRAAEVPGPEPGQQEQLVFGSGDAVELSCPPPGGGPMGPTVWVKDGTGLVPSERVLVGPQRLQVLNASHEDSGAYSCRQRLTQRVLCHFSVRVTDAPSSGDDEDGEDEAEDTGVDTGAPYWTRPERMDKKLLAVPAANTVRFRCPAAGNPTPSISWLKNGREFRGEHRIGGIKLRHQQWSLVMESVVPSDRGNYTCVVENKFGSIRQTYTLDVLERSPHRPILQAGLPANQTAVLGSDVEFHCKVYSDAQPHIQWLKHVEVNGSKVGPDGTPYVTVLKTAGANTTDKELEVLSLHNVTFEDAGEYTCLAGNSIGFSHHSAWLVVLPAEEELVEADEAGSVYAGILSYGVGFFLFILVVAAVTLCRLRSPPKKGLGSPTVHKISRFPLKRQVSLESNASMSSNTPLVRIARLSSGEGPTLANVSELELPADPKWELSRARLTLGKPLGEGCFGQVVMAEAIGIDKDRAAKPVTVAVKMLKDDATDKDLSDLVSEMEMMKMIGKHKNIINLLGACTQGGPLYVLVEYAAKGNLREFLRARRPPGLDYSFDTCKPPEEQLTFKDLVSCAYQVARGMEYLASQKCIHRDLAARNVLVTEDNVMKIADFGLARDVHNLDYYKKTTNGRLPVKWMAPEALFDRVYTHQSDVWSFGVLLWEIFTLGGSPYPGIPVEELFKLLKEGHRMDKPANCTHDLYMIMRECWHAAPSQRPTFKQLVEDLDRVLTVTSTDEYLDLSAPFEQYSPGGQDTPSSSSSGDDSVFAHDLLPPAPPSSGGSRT
The following applies: FGFR3(h), read-out: Inhibition rate. In outline: as §1

Assay [7] deals with T7, 380 human recombinant protein kinases (Homo sapiens, UniProt O14757).
T7 construct: purchased Eurofins (Celle Lévescault)
T7 sequence (O14757 1-476): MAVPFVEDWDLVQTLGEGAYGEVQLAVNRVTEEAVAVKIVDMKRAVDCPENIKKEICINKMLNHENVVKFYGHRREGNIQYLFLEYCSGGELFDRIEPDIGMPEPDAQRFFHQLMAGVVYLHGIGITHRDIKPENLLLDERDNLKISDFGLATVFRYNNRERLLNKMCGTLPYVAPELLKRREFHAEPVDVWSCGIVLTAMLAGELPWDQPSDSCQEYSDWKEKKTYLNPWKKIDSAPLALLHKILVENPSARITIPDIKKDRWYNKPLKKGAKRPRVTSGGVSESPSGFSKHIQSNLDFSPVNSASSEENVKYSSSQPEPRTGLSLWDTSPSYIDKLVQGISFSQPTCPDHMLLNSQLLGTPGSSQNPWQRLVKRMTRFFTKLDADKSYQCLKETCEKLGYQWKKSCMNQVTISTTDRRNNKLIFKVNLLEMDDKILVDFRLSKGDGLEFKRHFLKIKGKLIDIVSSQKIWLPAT
The note with it: CHK1(h), read-out: Inhibition rate. In outline: as §1

For orientation: inhibition means the drop in the measured response relative to a control, in per cent. For the molecule `C=CC(=O)Nc1cc(-c2cc(-c3cc4c([nH]3)CCNC4=O)ccn2)ccc1OC(F)(F)F` [compound 11], the inhibition at 0.01 µM in assay [1] (10 nM) is -3%; in assay [2] (10 nM), 1%; in assay [3] (10 nM), 0%; in assay [4] (10 nM) it was -3%; in assay [5] (10 nM), 7%; in assay [6] (10 nM) it was 2%. Besides, the inhibition at 0.01 µM in assay [7] (10 nM) is 10%. Besides, the inhibition at 0.1 µM in assay [1] (100 nM) was -2%; in assay [2] (100 nM), 8%; in assay [3] (100 nM), 0%; in assay [4] (100 nM), 5%; in assay [5] (100 nM) it was -1%; in assay [6] (100 nM) it was 9%. The inhibition at 0.1 µM in assay [7] (100 nM) is 6%. Moreover, the inhibition at 1 µM in assay [1] (1000 nM) is -2%; in assay [2] (1000 nM), 4%; in assay [3] (1000 nM) it was 2%; in assay [4] (1000 nM), 6%; in assay [5] (1000 nM), 6%; in assay [6] (1000 nM), 0%. Besides, in assay [7] (1000 nM), the inhibition at 1 µM was 6%.
